Measured values reported in US20170265465A1, “BIORATIONAL TREATMENT PRODUCTS AND METHODS OF USING SAME” (Board of Trustees of Michigan State University, priority 2014, published 2017).

Tests used:
Format in all cases: in vivo
[1] = test system: creeping bentgrass (Agrostis palustris) putting green; assay: Example 11, 2015 spring green-up (dormancy break) study: visual turfgrass biomass rating; conditions: urea only 0.2 lb. N/1000 ft^2, no bio-adjuvant; scale 1-5
Protocol: […] Objective biomass ratings were also performed based on an increase in dried weight of clippings. Clippings were collected over pre-measured plot areas in each treatment replicate using a Toro® brand walk-behind greens mower Model Greensmaster 8000 at the height described in this Example and dried in a drying oven (60° C.) for approximately 48 hours before being weighed.
(§1) Treatments were applied in the same manner and using the same equipment as previously described in Example 1. Turfgrass quality ratings and biomass ratings were performed as described in Example 1. Clippings were also collected as described in Example 1.
(§2) Treatments were applied once only to 2 ft ([…])×10.5 ft (3.2 m) plots of turfgrass on Apr. 1, 2015, while the turfgrass was still in winter dormancy (desiccated, brown, and thin). No additional applications were made to the study area. The study was rated visually for turfgrass biomass increase on Apr. 3, 2015 (2 days after treatment), on Apr. 11, 2015, and on Apr. 17, 2015. Turfgrass quality ratings were taken on Apr. 11, 2015 and Apr. 17, 2015. Turfgrass clippings were collected, dried, and weighed on Apr. 19, 2015 and May 2, 2015.

[2] = test system: creeping bentgrass (Agrostis palustris) putting green; assay: Example 11: dried clippings weights; conditions: urea only 0.2 lb. N/1000 ft^2, no bio-adjuvant
Protocol: Some biomass ratings were subjective visual estimations based on appearance of a combination of increased biomass and increased density on a 1 (least increase) to 9 (most increase) scale. Objective biomass ratings were also performed based on an increase in dried weight of clippings. Clippings were collected over pre-measured plot areas in each treatment replicate using a Toro® brand walk-behind greens mower Model Greensmaster 8000 at the height described in this Example and dried in a drying oven (60° C.) for approximately 48 hours before being weighed.
as §1, §2

[3] = test system: creeping bentgrass (Agrostis palustris) putting green; assay: Example 11: turfgrass quality rating; conditions: scale 1-9, urea 0.2 lb. N/1000 ft^2
Protocol: as §1, §2

## NC(N)=O [Urea only]
[1]
  Appearance (Biomass Increase) Apr. 3, 2015 Mean: 1.5
  Appearance (Biomass Increase) Apr. 11, 2015 Mean: 2.5
  Appearance (Biomass Increase) Apr. 17, 2015 Mean: 3
  Appearance (Biomass Increase) Apr. 25, 2015 Mean: 2.25
[2]
  Clippings (Biomass) Dry wt (g) Apr. 19, 2015 Mean: 4.623 g
  Clippings (Biomass) Dry wt (g) May 2, 2015 Mean: 6.175 g
[3]; Apr. 11, 2015
  Turfgrass Quality: 5.5
[3]; Apr. 17, 2015
  Turfgrass Quality: 5.5
[3]; Apr. 25, 2015
  Turfgrass Quality: 5.75
